Data taken from ChEMBL document CHEMBL5465560, “Selectivity Literature for EUbOPEN Chemogenomic Library” (2024).

Columns and labels:
[1] = target: Cyclin-dependent kinase 7 (Homo sapiens, UniProt P50613); test: Selectivity interaction (KinomeScan (DiscoverX)) EUB0000229b CDK7; conditions: at 10 µM
[2] = target: Mitogen-activated protein kinase kinase kinase kinase 4 (Homo sapiens, UniProt O95819); test: Selectivity interaction (KinomeScan (DiscoverX)) EUB0000695a MAP4K4; conditions: at 100 nM
Adenosine receptor A2a = Adenosine receptor A2a (Homo sapiens, UniProt P29274); test: Selectivity interaction (Panel of kinases, GPCRs, ion channels and transporters (enzymatic assay)) EUB0000223bCl ADORA2A
[3] = target: Serine/threonine-protein kinase 32A (Homo sapiens) (UniProt Q8WU08); test: Selectivity interaction (KinomeScan (DiscoverX)) EUB0000607a STK32A; conditions: at 10 µM
[4] = Selectivity interaction (ActivX KiNativ screen (kinase selectivity in THP-1 cell lysates)) EUB0000639a STLK6; conditions: Selectivity number of off-targets 0; Selectivity number of targets 283; Source Knowledge https://pubmed.ncbi.nlm.nih.gov/28498658/; at 0.04 µM
[5] = target: Mitogen-activated protein kinase 10 (Homo sapiens, UniProt P53779); test: Selectivity interaction (Kinase panel (Invitrogen)) EUB0000639a MAPK10; conditions: at 200 nM
[6] = target: Serine/threonine-protein kinase MARK2 (Homo sapiens) (UniProt Q7KZI7); test: Selectivity interaction (ActivX KiNativ screen (kinase selectivity in THP-1 cell lysates)) EUB0000639a MARK2; type: subcellular; conditions: lysate, at 0.01 µM
[7] = target: Casein kinase I isoform gamma-2 (Homo sapiens) (UniProt P78368); test: Selectivity interaction (Kinase panel (Invitrogen)) EUB0000639a CSNK1G2; conditions: at 200 nM
[8] = target: T1, Serine/threonine-protein kinase tousled-like 1 (Homo sapiens) (UniProt Q9UKI8); test: Selectivity interaction (KinomeScan (DiscoverX)) EUB0000655a TLK1; conditions: at 10 µM
T1 sequence (whole entry): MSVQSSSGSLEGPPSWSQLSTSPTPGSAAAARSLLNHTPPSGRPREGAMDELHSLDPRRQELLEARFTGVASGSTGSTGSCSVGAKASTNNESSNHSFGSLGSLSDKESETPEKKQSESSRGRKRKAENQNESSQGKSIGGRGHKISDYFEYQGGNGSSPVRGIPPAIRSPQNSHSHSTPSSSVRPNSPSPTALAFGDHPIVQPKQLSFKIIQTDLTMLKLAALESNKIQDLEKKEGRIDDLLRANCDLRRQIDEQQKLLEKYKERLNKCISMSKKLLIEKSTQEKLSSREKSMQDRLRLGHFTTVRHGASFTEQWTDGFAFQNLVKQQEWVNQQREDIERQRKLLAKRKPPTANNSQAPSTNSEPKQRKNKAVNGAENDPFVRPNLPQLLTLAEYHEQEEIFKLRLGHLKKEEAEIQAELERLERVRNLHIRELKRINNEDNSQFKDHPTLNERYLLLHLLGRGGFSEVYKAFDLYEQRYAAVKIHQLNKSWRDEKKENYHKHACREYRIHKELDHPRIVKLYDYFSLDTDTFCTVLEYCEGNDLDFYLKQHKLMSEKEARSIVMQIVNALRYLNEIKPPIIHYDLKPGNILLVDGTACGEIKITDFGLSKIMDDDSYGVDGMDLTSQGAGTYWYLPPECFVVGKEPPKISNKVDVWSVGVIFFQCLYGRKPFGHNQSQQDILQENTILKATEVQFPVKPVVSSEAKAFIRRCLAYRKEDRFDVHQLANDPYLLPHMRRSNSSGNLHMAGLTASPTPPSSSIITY

[9] = target: T2, Phosphatidylinositol 4,5-bisphosphate 3-kinase catalytic subunit delta isoform (Homo sapiens) (UniProt O00329); test: Selectivity interaction (KinomeScan (DiscoverX)) EUB0000655a PIK3CD; conditions: at 10 µM
T2 sequence (whole entry): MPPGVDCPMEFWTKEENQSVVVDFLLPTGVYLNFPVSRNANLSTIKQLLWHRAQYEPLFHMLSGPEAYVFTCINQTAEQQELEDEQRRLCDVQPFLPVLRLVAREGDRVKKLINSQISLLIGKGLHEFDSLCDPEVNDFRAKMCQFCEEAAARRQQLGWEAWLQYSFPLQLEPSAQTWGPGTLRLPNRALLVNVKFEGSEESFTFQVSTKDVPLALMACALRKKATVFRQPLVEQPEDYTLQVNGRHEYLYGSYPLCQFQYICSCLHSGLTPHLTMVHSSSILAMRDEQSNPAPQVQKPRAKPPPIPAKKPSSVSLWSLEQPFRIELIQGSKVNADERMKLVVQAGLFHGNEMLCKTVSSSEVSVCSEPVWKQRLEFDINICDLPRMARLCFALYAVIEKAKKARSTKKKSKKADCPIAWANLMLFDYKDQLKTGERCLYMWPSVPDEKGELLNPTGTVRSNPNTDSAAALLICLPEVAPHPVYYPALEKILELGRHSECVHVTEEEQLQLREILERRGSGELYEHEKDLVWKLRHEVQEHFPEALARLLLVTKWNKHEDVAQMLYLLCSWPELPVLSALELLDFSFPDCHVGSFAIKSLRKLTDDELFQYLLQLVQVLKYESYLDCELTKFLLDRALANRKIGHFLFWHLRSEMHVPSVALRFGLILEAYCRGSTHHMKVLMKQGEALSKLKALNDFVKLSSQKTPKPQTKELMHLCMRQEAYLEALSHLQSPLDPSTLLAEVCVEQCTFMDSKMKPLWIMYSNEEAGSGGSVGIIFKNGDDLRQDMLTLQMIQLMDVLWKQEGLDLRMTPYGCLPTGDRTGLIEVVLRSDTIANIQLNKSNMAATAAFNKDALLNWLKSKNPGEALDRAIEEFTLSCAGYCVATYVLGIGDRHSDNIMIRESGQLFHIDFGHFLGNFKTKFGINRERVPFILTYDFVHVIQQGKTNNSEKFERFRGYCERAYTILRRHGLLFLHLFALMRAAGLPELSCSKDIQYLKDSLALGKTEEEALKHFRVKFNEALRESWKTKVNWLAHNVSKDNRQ

[10] = target: Protein kinase C eta type (Homo sapiens) (UniProt P24723); test: Selectivity interaction (KinomeScan (DiscoverX)) EUB0000092b PRKCH; conditions: at 10 µM
Protein kinase C eta type (Homo sapiens), sequence (P24723 whole entry): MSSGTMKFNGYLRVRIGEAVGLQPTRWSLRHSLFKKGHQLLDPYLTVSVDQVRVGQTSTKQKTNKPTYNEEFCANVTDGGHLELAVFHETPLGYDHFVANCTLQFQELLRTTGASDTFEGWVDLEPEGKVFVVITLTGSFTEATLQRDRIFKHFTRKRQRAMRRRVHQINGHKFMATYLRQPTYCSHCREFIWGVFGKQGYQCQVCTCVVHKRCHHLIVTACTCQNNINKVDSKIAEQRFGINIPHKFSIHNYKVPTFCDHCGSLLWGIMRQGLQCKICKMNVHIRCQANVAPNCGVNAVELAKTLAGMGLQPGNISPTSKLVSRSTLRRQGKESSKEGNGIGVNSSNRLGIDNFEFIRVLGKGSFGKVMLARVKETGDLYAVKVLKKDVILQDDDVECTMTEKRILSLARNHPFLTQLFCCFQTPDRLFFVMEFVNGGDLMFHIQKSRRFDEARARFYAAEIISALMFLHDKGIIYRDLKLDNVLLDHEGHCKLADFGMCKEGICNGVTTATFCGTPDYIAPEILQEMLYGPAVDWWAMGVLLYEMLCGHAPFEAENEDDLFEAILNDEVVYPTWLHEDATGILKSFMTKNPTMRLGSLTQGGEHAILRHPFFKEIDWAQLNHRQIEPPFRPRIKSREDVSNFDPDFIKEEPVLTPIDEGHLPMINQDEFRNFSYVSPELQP

Adenosine receptor A2a, sequence (P29274 whole entry): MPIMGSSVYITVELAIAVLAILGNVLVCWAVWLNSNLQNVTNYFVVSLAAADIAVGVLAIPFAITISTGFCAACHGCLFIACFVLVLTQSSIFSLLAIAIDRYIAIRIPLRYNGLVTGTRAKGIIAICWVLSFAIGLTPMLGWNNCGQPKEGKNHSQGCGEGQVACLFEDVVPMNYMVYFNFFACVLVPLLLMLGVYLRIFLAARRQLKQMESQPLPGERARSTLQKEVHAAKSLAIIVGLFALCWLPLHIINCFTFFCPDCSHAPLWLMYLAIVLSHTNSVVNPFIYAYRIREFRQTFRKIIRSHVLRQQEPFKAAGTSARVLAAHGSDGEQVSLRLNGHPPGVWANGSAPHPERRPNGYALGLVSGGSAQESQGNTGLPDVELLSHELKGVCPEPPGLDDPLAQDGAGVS
Mitogen-activated protein kinase kinase kinase kinase 4, sequence (O95819 2-1239 limits assumed): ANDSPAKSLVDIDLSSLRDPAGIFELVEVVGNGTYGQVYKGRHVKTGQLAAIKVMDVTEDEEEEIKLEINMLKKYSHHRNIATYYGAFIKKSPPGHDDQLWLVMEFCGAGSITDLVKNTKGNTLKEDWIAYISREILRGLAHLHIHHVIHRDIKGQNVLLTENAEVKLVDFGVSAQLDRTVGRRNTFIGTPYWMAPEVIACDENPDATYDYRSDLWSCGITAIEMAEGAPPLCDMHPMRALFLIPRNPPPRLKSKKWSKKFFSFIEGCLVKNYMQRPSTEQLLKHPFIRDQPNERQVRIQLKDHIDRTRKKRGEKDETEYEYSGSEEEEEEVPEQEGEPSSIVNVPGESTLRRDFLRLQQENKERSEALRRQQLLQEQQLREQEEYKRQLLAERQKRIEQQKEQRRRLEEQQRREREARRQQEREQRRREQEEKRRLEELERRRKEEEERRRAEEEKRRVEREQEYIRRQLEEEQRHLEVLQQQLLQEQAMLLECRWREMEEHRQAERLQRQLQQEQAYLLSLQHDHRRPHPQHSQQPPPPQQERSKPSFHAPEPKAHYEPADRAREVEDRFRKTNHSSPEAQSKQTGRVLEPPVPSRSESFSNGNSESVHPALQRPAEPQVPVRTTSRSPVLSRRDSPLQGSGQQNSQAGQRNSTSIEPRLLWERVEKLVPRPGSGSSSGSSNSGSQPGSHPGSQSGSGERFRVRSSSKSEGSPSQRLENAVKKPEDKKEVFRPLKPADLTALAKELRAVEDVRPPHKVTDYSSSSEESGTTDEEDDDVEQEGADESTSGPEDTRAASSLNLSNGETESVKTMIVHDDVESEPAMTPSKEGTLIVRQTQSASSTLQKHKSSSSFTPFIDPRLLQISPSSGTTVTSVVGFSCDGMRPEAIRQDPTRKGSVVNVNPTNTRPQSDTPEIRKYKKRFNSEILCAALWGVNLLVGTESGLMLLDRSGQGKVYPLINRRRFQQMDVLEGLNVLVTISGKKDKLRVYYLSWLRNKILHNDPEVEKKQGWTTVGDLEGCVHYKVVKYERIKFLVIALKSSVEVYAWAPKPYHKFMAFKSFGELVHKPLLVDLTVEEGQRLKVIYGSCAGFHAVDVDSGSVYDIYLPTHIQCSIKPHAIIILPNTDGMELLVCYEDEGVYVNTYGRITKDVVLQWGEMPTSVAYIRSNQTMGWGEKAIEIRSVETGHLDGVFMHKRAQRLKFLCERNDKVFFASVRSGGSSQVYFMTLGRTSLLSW
Casein kinase I isoform gamma-2 (Homo sapiens), sequence (P78368 whole entry, looked up, canonical isoform): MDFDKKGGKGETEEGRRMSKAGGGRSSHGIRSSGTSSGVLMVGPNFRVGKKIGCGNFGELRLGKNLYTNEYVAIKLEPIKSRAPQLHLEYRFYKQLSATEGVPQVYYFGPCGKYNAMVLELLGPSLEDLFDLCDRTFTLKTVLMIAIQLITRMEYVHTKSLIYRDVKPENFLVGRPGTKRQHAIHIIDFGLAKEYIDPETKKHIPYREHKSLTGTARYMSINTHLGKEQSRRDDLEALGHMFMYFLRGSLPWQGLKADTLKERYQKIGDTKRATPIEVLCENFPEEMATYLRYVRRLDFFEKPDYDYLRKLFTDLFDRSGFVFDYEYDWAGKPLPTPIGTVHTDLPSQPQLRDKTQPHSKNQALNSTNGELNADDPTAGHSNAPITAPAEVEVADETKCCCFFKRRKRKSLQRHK
Serine/threonine-protein kinase 32A (Homo sapiens), sequence (Q8WU08 whole entry): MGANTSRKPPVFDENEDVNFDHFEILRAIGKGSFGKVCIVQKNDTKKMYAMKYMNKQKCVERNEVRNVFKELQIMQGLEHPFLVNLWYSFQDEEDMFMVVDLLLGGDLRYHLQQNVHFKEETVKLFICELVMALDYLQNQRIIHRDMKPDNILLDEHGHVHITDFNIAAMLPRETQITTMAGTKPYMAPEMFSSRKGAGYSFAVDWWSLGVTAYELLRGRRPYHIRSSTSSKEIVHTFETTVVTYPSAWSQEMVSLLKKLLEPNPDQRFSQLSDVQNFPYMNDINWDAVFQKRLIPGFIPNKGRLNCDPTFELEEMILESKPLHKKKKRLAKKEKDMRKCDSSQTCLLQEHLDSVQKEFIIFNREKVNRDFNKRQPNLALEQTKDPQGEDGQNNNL
Cyclin-dependent kinase 7, sequence (P50613 whole entry): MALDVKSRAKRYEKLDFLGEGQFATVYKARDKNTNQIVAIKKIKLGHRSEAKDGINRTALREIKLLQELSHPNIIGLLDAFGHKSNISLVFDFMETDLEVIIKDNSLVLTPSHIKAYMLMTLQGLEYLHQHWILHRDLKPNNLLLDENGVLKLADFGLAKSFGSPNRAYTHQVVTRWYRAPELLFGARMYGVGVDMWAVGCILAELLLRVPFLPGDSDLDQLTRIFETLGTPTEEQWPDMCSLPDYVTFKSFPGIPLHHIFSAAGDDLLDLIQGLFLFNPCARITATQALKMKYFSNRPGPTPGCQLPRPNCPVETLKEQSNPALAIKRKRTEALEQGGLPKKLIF
Serine/threonine-protein kinase MARK2 (Homo sapiens), sequence (Q7KZI7 whole entry, canonical isoform): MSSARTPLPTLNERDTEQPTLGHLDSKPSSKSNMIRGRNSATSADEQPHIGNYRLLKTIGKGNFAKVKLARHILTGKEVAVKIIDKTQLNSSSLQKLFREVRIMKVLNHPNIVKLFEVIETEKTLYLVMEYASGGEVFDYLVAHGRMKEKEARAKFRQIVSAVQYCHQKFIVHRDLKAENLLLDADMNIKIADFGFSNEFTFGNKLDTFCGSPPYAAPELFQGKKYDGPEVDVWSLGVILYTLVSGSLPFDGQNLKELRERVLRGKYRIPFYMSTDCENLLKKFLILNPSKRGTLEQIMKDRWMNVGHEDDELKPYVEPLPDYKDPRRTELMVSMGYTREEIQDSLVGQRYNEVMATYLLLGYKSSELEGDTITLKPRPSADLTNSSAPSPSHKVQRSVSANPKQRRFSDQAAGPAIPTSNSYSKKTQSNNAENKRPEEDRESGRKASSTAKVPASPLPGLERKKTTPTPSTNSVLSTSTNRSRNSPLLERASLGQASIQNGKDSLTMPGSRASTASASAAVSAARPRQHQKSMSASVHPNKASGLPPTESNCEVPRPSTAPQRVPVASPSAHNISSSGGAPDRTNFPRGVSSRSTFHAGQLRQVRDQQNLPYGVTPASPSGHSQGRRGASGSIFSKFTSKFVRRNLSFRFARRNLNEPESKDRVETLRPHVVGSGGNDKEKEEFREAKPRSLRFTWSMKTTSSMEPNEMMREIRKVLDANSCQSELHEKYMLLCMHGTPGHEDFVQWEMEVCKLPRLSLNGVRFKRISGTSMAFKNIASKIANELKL
Mitogen-activated protein kinase 10, sequence (P53779 whole entry): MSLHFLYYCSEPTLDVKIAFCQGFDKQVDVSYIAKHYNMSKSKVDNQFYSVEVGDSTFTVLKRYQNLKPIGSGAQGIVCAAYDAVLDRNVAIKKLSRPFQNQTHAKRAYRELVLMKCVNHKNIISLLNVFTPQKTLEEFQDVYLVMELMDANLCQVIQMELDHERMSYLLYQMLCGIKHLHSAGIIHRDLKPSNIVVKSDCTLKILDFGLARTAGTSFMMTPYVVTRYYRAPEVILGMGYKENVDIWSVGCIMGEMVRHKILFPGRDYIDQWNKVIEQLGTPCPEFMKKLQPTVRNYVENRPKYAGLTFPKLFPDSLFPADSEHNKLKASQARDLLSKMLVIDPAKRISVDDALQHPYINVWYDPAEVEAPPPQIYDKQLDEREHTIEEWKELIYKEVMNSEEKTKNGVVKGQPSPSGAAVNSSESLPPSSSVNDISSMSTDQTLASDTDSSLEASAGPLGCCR

## COc1cc(N(C)c2ccnc3ccc(C(F)(F)F)cc23)cc(OC)c1OC
[1]
  % binding: 57%

## Cc1cc(F)c(C(=O)Nc2cccc(-c3nncn3C(C)C)n2)cc1-n1cnc(C2CC2)c1
[2]
  % of control: 100%

## COc1cc(C(=O)N2CC[C@@H](O)[C@@H](N)C2)cc2nc(-c3cc4ccccc4n3CC3CC3)n(C)c12
Adenosine receptor A2a
  pXC50: < 4.5 M

## CNC(=O)Nc1ccc(-c2nc(N3CC4CCC(C3)O4)c3cnn(C4CCC5(CC4)OCCO5)c3n2)cc1
[3]
  % of control: 99%

## CC[C@@H]1[C@H](F)C(=O)N[C@@H]1COc1nccc2cc(C(N)=O)c(OC)cc12 [ZIMLOVISERTIB]
[4]
  % of inhibition: 16%
[5]
  % of inhibition: 4.92%
[6]
  % of inhibition: -5.4%
[7]
  % of inhibition: 64.8%

## CN(C)CCOc1ccc(-c2nc(-c3ccncc3)c(-c3ccc4c(c3)CC/C4=N\O)[nH]2)cc1
[8]
  % of control: 99%
[9]
  % of control: 79%

## CCC(=O)N1CCN(c2ccc(-n3c(=O)ccc4cnc5ccc(-c6cnc7ccccc7c6)cc5c43)cc2C(F)(F)F)CC1
[10]
  % of control: 92%
